In this assay the target is T1, tubulin/RB3-stathmin-like-domain (RB3-SLD-tdm) complex (Sus scrofa, UniProt P02550+P02554).
T1 construct: purchased Cytoskeleton, Inc. T240; host or cells: RB3-SLD was made in house in E. coli
Put plainly: Tubulin Peptide-Binding Site Competition Assay (fluorescence polarization). More on the design: species or system Porcine. The conditions noted are these: FP competition with BODIPY-labeled vinca peptide probe; read after five hours at 22° C.; read-out: Tubulin Peptide-Binding Site Competition Assay IC50. The method, then:
Tubulin Peptide-Binding Site Competition Assay
Tubulin binding potency was measured for payloads or cysteine-capped linker-payloads using a fluorescence polarization (FP) competition assay. The binding of a BODIPY-labeled vinca peptide probe (# B31) to a tubulin/RB3-stathmin-like-domain (RB3-SLD-tdm) complex generates a high FP signal, which can be decreased when mixing with test compounds that compete with the FP probe. The order of addition for the reagents in the FP assay was designed to pre-mix the FP probe with various concentrations of the test compound before mixing them with the tubulin/RB3-SLD-dm complex. The final assay concentrations of the probe, tubulin and RB3-SLD-dm were 3, 6, and 100 nM, respectively. IC50 for each test compound is obtained by fitting the dose-dependent FP signal change using GraphPad Prism version 5 software (La Jolla, Calif.) while Ki is converted from the IC50 using the equations described previously (Nikolovska-Coleska et al., 2004). The FP signals were measured on an Infinite M1000 (Tecan, San Jose, Calif.) using ProxiPlate-384 F Plus, Black (Perkin-Elmer, Waltham, Mass., Cat #6008260) with 15 μL of solution per well. Sample dilution and mixing were done using a Beckman Biomek XF (Brea, Calif.). Porcine tubulin was purchased from Cytoskeleton, Inc. (Denver, Colo., Cat #T240) and RB3-SLD was expressed in E. coli. and purified on Q and then Superdex75 columns. The FP assay test for each compound was run in duplicates by mixing 6 μL of solution 1 containing 2.5× test compound (2.5× serial dilution from 7.8 μM maximum concentration, 11 total concentrations) and 7.5 nM of the FP probe in 80 mM PIPES, pH 7.0, 0.02% Tween 20, 2 mM MgCl2, 1 mM EGTA and 3% DMSO with 9 μL of solution 2 containing […] porcine tubulin and 167 nM of RB3-SLD-dm peptide ([…]-[…]) on ProxiPlate-384 micro-plates.

Experimental findings from patent US10723727B2, “Tubulysin analogs and methods for their preparation” (priority 2016, dated 2020) are described below.

Molecules are shown by their SMILES.

In the case of `CC[C@H](C)[C@H](NC(=O)[C@@]1(C)CCCN1C)C(=O)N(C)[C@H](C[C@@H](OC(C)=O)c1nc(C(=O)NCCC2CCCCC2)cs1)C(C)C` [#B49, 1,2-dimethyl-D-prolyl-N-[(1R,3R)-1-(acetyloxy)-1-{4-[(2-cyclohexylethyl)carbamoyl]-1,3-thiazol-2-yl}-4-methylpentan-3-yl]-N-methyl-L-isoleucinamide], the IC50 turned out to be 127 nM.
Next, `CC[C@H](C)[C@H](NC(=O)[C@@]1(C)CCCN1C)C(=O)N(C)[C@H](C[C@@H](OC(C)=O)c1nc(C(=O)NC2CCc3ccccc3C2)cs1)C(C)C` (stereo partly drawn) [#B57, 1,2-dimethyl-D-prolyl-N-{(1R,3R)-1-(acetyloxy)-4-methyl-1-[4-(1,2,3,4-tetrhydronaphthalen-2-ylcarbamoyl)-1,3-thiazol-2-yl)pentan-3-yl}-N-methyl-L-isoleucinamide]: 78.8 nM; `CC[C@H](C)[C@H](NC(=O)[C@@]1(C)CCCN1C)C(=O)N(C)[C@H](C[C@@H](OC(C)=O)c1nc(C(=O)NCCc2cnn(C)c2)cs1)C(C)C` [#B77, 1,2-dimethyl-D-prolyl-N-[(1R,3R)-1-(acetyloxy)-4-methyl-1-(4-{[2-(1-methyl-1H-pyrazol-4-yl)ethyl]carbamoyl}-1,3-thiazol-2-yl)pentan-3-yl]-N-methyl-L-isoleucinamide]: 249 nM.
Next, `CC[C@H](C)[C@H](NC(=O)[C@@]1(C)CCCN1C)C(=O)N(C)[C@H](C[C@@H](OC(C)=O)c1nc(C(=O)NC2(Cc3ccccc3)CC2)cs1)C(C)C` [#B55]: 28.4 nM; `CC[C@H](C)[C@H](NC(=O)C(C)(C)N(C)C)C(=O)N(C)[C@H](C[C@@H](OC(C)=O)c1nc(C(=O)N[C@@H](Cc2ccccc2)C[C@H](C)C(=O)OC)cs1)C(C)C` [#B34, N,N,-2-trimethylalanyl-N-[(1R,3R)-1-(acetyloxy)-1-(4-{[(2R,4S)-5-methoxy-4-methyl-5-oxo-1-phenylpentan-2-yl]carbamoyl}-1,3-thiazol-2-yl)-4-methylpentan-3-yl]-N-methyl-L-isoleucinamide]: 24.8 nM; `CC[C@H](C)[C@H](NC(=O)[C@@]1(C)CCCN1C)C(=O)N(C)[C@H](C[C@@H](OC(C)=O)c1nc(C(=O)NCCn2cccn2)cs1)C(C)C` [#B56, 1,2-dimethyl-D-prolyl-N-[(1R,3R)-1-(acetyloxy)-4-methyl-1-(4-{[2-(1H-pyrazol-1-yl)ethyl]carbamoyl}-1,3-thiazol-2-yl)pentan-3-yl]-N-methyl-L-isoleucinamide]: 33.6 nM.
As for `CC[C@H](C)[C@H](NC(=O)[C@@]1(C)CCCN1C)C(=O)N(C)[C@H](C[C@@H](OC(C)=O)c1nc(C(=O)NC2(c3ccccc3)CC2)cs1)C(C)C` [#B52, 1,2-dimethyl-D-prolyl-N-[(1R,3R)-1-(acetyloxy)-4-methyl-1-{4-[(1-phenylcyclopropyl)carbamoyl]-1,3-thiazol-2-yl}pentan-3-yl]-N-methyl-L-isoleucinamide], the figure is 61.8 nM.
As for `CC[C@H](C)[C@H](NC(=O)[C@@]1(C)CCCN1C)C(=O)N(C)[C@H](C[C@@H](OC(C)=O)c1nc(C(=O)NCC2OCCc3ccccc32)cs1)C(C)C` (stereo partly drawn) [#B69, 1,2-dimethyl-D-prolyl-N-[(1R,3R)-1-(acetyloxy)-1-{4-[(3,4-dihydro-1H-isochromen-1-ylmethyl)carbamoyl]-1,3-thiazol-2-yl}-4-methylpentan-3-yl}-N-methyl-L-isoleucinamide], the IC50 was 29.9 nM.
Next, `CC[C@H](C)[C@H](NC(=O)[C@@]1(C)CCCN1C)C(=O)N(C)[C@H](C[C@@H](OC(C)=O)c1nc(C(=O)NC(c2ccccc2)c2ccccc2)cs1)C(C)C` [#B67, 1,2-dimethyl-D-prolyl-N-[(1R,3R)-1-(acetyloxy)-1-{4-[(diphenylmethyl)carbamoyl]-1,3-thiazol-2-yl}-4-methylpentan-3-yl]-N-methyl-L-isoleucinamide]: 348 nM; `CC[C@H](C)[C@H](NC(=O)[C@@]1(C)CCCN1C)C(=O)N(C)[C@H](C[C@@H](OC(C)=O)c1nc(C(=O)NC2(Cc3ccccc3)CCCCC2)cs1)C(C)C` [#B47, 1,2-dimethyl-D-prolyl-N-[(1R,3R)-1-(acetyloxy)-1-{4-[(1-benzylcyclohexyl)carbamoyl]-1,3-thiazol-2-yl}-4-methylpentan-3-yl]-N-methyl-L-isoleucinamide]: 202 nM; `CC[C@H](C)[C@H](NC(=O)[C@@]1(C)CCCN1C)C(=O)N(C)[C@H](C[C@@H](OC(C)=O)c1nc(C(=O)NCCN2CCCC2=O)cs1)C(C)C` [#B73, 1,2-dimethyl-D-prolyl-N-[(1R,3R)-1-(acetyloxy)-4-methyl-1-(4-{[2-(2-oxopyrrolidin-1-yl)ethyl]carbamoyl}-1,3-thiazol-2-yl)pentan-3-yl]-N-methyl-L-isoleucinamide]: 85.5 nM.
Next, `CC[C@H](C)[C@H](NC(=O)[C@@]1(C)CCCN1C)C(=O)N(C)[C@H](C[C@@H](OC(C)=O)c1nc(C(=O)NCCNC(=O)c2ccccc2)cs1)C(C)C` [#B60, 1,2-dimethyl-D-prolyl-N-[(1R,3R)-1-(acetyloxy)-1-(4-{[2-(benzoylamino)ethyl]carbamoyl}-1,3-thiazol-2-yl)-4-methylpentan-3-yl]-N-methyl-L-isoleucinamide]: 108 nM; `CC[C@H](C)[C@H](NC(=O)[C@@]1(C)CCCN1C)C(=O)N(C)[C@H](C[C@@H](OC(C)=O)c1nc(C(=O)NCCN2Cc3ccccc3C2=O)cs1)C(C)C` [#B44, 1,2-dimethyl-D-prolyl-N-[(1R,3R)-1-(acetyloxy)-4-methyl-1-(4-{[2-(1-oxo-1,3-dihydro-2H-isoindol-2-yl)ethyl]carbamoyl}-1,3-thiazol-2-yl)pentan-3-yl]-N-methyl-L-isoleucinamide]: 47.6 nM.
Next, `CC[C@H](C)[C@H](NC(=O)[C@@]1(C)CCCN1C)C(=O)N(C)[C@H](C[C@@H](OC(C)=O)c1nc(C(=O)NC(Cc2ccccc2)c2ccccc2)cs1)C(C)C` (stereo partly drawn) [#B74, 1,2-dimethyl-D-prolyl-N-[(1R,3R)-1-(acetyloxy)-1-{4-[(1,2-diphenylethyl)carbamoyl]-1,3-thiazol-2-yl}-4-methylpentan-3-yl]-N-methyl-L-isoleucinamide]: 89.3 nM; `CC[C@H](C)[C@H](NC(=O)C(C)(C)N)C(=O)N(C)[C@H](C[C@@H](OC(C)=O)c1nc(C(=O)N[C@@H](Cc2ccccc2)C[C@H](C)C(=O)OC)cs1)C(C)C` [#B35, 2-methylalanyl-N-[(1R,3R)-1-(acetyloxy)-1-(4-{[(2R,4S)-5-methoxy-4-methyl-5-oxo-1-phenylpentan-2-yl]carbamoyl}-1,3-thiazol-2-yl)-4-methylpentan-3-yl]-N-methyl-L-isoleucinamide]: 96.8 nM; `CC[C@H](C)[C@H](NC(=O)[C@@]1(C)CCCN1C)C(=O)N(C)[C@H](C[C@@H](OC(C)=O)c1nc(C(=O)NCCCN2CCCC2=O)cs1)C(C)C` [#B43, 1,2-dimethyl-D-prolyl-N-[(1R,3R)-1-(acetyloxy)-4-methyl-1-(4-{[3-(2-oxopyrrolidin-1-yl)propyl]carbamoyl}-1,3-thiazol-2-yl)pentan-3-yl]-N-methyl-L-isoleucinamide]: 51.8 nM.
For `CC[C@H](C)[C@H](NC(=O)[C@@]1(C)CCCN1C)C(=O)N(C)[C@H](C[C@@H](OC(C)=O)c1nc(C(=O)NCCc2cccc3ccccc23)cs1)C(C)C` [#B70, 1,2-dimethyl-D-prolyl-N-[(1R,3R)-1-(acetyloxy)-4-methyl-1-(4-{[2-(naphthalen-1-yl)ethyl]carbamoyl}-1,3-thiazol-2-yl)pentan-3-yl]-N-methyl-L-isoleucinamide], the 50% inhibitory concentration (IC50) was found to be 56.3 nM.
As for `CC[C@H](C)[C@H](NC(=O)[C@@]1(C)CCCN1C)C(=O)N(C)[C@H](C[C@@H](OC(C)=O)c1nc(C(=O)NCCc2cnccn2)cs1)C(C)C` [#B68, 1,2-dimethyl-D-prolyl-N-{(1R,3R)-1-(acetyloxy)-4-methyl-1-(4-{[2-(pyrazin-2-yl)ethyl]carbamoyl}-1,3-thiazol-2-yl)pentan-3-yl]-N-methyl-L-isoleucinamide], the figure is 84.7 nM; as for `CC[C@H](C)[C@H](NC(=O)[C@@]1(C)CCCN1C)C(=O)N(C)[C@H](C[C@@H](OC(C)=O)c1nc(C(=O)N[C@@H](Cc2ccccc2)CN2CCOCC2)cs1)C(C)C` [#B72, 1,2-dimethyl-D-prolyl-N-[(1R,3R)-1-(acetyloxy)-4-methyl-1-(4-{[(2S)-1-(morpholin-4-yl)-3-phenylpropan-2-yl]carbamoyl}-1,3-thiazol-2-yl)pentan-3-yl]-N-methyl-L-isoleucinamide], 32.9 nM.
Regarding `CC[C@H](C)[C@H](NC(=O)[C@@]1(C)CCCN1C)C(=O)N(C)[C@H](C[C@@H](OC(C)=O)c1nc(C(=O)NCCc2cncnc2)cs1)C(C)C` [#B71, 1,2-dimethyl-D-prolyl-N-[(1R,3R)-1-(acetyloxy)-4-methyl-1-(4-{[2-(pyrimidin-5-yl)ethyl]carbamoyl}-1,3-thiazol-2-yl)pentan-3-yl]-N-methyl-L-isoleucinamide], the IC50 is 85.1 nM.
